For data set [1], the system named is CD38. Particulars: bone marrow and MM cells of patients after first treatment; cited from earlier work.
The nature of data set [2]: HD NK cell viability by DAPI flow cytometry (Example 2). In kind it is cell-based. Particulars: human, healthy donor (HD) NK cells purified from PBMCs; high concentrations 25-40 μM, after 4 days of treatment; read-out: reduction of HD NK cells viability. From the text: (§1) Healthy donor buffy coats were supplied by EFS Ile de France. Immediately after reception, the qualified buffy coats were put under gentle agitation overnight at room temperature. The following day, peripheral blood mononuclear cells (PBMCs) were isolated by Ficoll (Cytiva #17-1440-02) density gradient centrifugation. Human NK cells were purified from PBMCs with the MACSXpress Whole Blood NK cell isolation kit from Miltenyi Biotec (#130-127-695) by negative selection using manual magnetic labelling and the MACSxpress separator (Miltenyi Biotec #130-098-308). Then, purified NK cells were cultured in RPMI1640 medium supplemented with 10% fetal bovine serum (FBS) (Eurobio #CVFSVF06-01) and 1% of L-Glutamine (Gibco #25030-081). […]
To additionally assess cell viability, DAPI (Miltenyi Biotec, #130-111-570) was added in each well before plate reading by flow cytometry. Samples were then analyzed with the MACSQuant 16 flow cytometer (Miltenyi Biotec). Data were analyzed with FlowJo software using the following strategy shown in FIGS. 3A-3D: (A) MOLP-8 cells excluding debris were gated, followed by gating for single cells (B), from single cells, viable DAPI^neg cells were quantified (C), and from DAPI^neg cells, the expression of CD38 was quantified with FITC fluorochrome (D) and expressed as median of fluorescence intensity (MFI).
Background: A flow cytometer gives signals particle by particle.

The subject of data set [3] is MM cell lines (LP1, MM1R, MM1S, OPM2). As to the kind of experiment: CellTiter-Glo cell viability, panel of MM cell lines. The format is cell-based, human. As to conditions: 8 days treatment. The protocol: Cell viability was measured by CellTiter-Glo, Luminescent Cell Viability Assay normalized with DMSO.
Background: ATP-based viability assays read luminescence as a measure of living cells.

The conditions of data set [4]: cited from earlier work.
Data set [5] concerns MM1S cells. As to the kind of experiment: Growth inhibition of MM1S cells (CellTiterGlo / Incucyte confluency). As to conditions: 5-6 days. The format is cell-based, human. The protocol: (§2) On Day 1, the cells were plated at 3,000 cells per well (50 ul) using 384w plate (Costar, 3765) pre-coated with Poly-D-Lysine, spun down at 300 g for 1 min at room temperature and transferred in Incucyte S3 (37° C.; 5% CO2; every 2 h kinetic read). […] Cells were further incubated in Incucyte S3 (Sartorius) for an additional 5-6 days at 37° C., 5% CO2 with the same kinetic readings. At the end, proliferation was measured by added CellTiterGlo (Promega) to assess cell viability or by using Incucyte measuring cell confluency over time. Cell growth was normalized to DMSO (100%) and staurosporine (Sigma; […]) 1 uM (0%)).

For data set [6] the following is noted: cited from earlier work. This is another data set of the same source.
In data set [7] the test system is LP-1 cells. As to the kind of experiment: Growth inhibition of LP-1 cells (CellTiterGlo / Incucyte confluency). As to conditions: LP1, 5-6 days. The format is cell-based, human. The protocol:
as §2

The subject of data set [8] is C-myc protein. As to the kind of experiment: Western blot of C-Myc in LP1 cells. The format is cell-based, human. Particulars: 24 hours of treatment.
Data set [9] deals with RPMI-8226. As to the kind of experiment: RPMI-8226 viability, belumosudil vs Y27632 (Example 5). In kind it is cell-based, human. Particulars: 10-40 μM (belumosudil effect starting at 10 μM), after 4 days of treatment. As for the experimental part:
RPMI-8226 (ATCC, #CCL155) were maintained in RPMI1640 complete medium, incubated at 37° C. with 5% CO2 before being used.
(§3) Before treatment, MM cells were centrifuged for 5 minutes at 300 g, counted, and resuspended in RPMI1640 complete medium to have 50000 cells/100 μl.
(§4) Compounds and cells were then added to the appropriate wells of a Corning™ 96-Well Clear Ultra Low Attachment Microplate (Corning, #7007) (final volume of each well: 200 μl). […] MOLP-8 or LP-1 or RPMI-8226 or HD NK cells (50000 cells/well) were then added to the appropriate wells. The plate was then centrifuged for 1 minute at 100 g before being placed into an incubator at 37° C. with 5% CO2 for up to 4 days.
After treatment, cells were collected and added to U bottom plates for antibody labelling.
Then, cells were centrifuged for 5 minutes at 300 g, the supernatant removed and 200 μl of AutoMACS Running buffer (Miltenyi Biotec, #130-091-221) added to each well. […]
(§5) To additionally assess cell viability, DAPI (Miltenyi Biotec, #130-111-570) was added in each well before plate reading by flow cytometry. Samples were then analyzed with the MACSQuant 16 flow cytometer (Miltenyi Biotec).
(§6) Data were analyzed with FlowJo software as shown in FIG. 3: (FIG. 3A) MOLP-8 cells excluding debris was gated, followed by gating for single cells (FIG. 3B). From the single cells, viable DAPI^neg cells were quantified (FIG. 3C).

The test system of data set [10] is HD NK cells. As to the kind of experiment: HD NK cell viability, belumosudil vs Y27632 (Example 5). In kind it is cell-based, human. As to conditions: 10-40 μM, after 4 days of treatment.
Excerpt: as §1, with “foetal” for “fetal”, “#25030-081). The cells were left to rest overnight at 37° C. with 5% CO2 before being used.” for “#25030-081).”
as §5, §6

Data set [11] has as its system MOLP-8. As to the kind of experiment: MOLP-8 viability, belumosudil vs Y27632 (Example 5). The format is cell-based, human. As to conditions: 10-40 μM (belumosudil effect starting at 10 μM), after 4 days of treatment. As for the experimental part:
MOLP-8 (DSMZ, #ACC569) were maintained in RPMI1640 complete medium (RPMI1640 supplemented with 20% FBS—Eurobio #CVFSVF06-01 and 1% L-glutamine—Gibco #25030-081), incubated at 37° C. with 5% CO2 before being used.
as §3, §4
After treatment, cells were collected and added to U bottom plates for antibody labelling. […]
as §5, §6

Structures can show the parent of a compound that is named as a salt.

This is an account of results in US20260199343A1 (Kadmon Corporation, LLC, priority 2022, published 2026).

Regarding daratumumab: anti-CD38 antibody, in [1], the CD38 expression result is “reduced”.
As for `CC(C)NC(=O)COc1cccc(-c2nc(Nc3ccc4[nH]ncc4c3)c3ccccc3n2)c1` [belumosudil, 2-{3-[4-(1H-indazol-5-ylamino)-2-quinazolinyl]phenoxy}-N-(propan-2-yl) acetamide], in data set [2], the cytotoxicity at 4 days was not above 10%. The IC50 – broadly, the concentration that gives 50% inhibition – in data set [3] (Homo sapiens, 192 h, LP1, MM1R, MM1S, OPM2, normalized with DMSO, read-out: IC50 of MM cell line growth inhibition) lay within 1 to 7 µM.
With `CC(C)NC(=O)COc1cccc(-c2nc(Nc3ccc4[nH]ncc4c3)c3ccccc3n2)c1` [Belumosudil mesylate, 2-{3-[4-(1H-indazol-5-ylamino)-2-quinazolinyl]phenoxy}-N-(propan-2-yl) acetamide methanesulfonate (1:1)], the solubility in water result in data set [4] is “practically insoluble in water”.
Take `C[C@@H]1C[C@H]2[C@@H]3CCC4=CC(=O)C=C[C@]4(C)[C@@]3(F)[C@@H](O)C[C@]2(C)[C@@]1(O)C(=O)CO` [Dexamethasone, 9-fluoro-11β,17,21-trihydroxy-16α-methylpregna-1,4-diene-3,20-dione]: the solubility in water result in data set [4] is reported as “practically insoluble in water”. The “growth inhibition, single agent” value in data set [5] and in data set [7] was “single agent growth inhibition activity” throughout. The stability in air result in data set [6] is recorded as “stable in air”.
Consider `Nc1cccc2c1C(=O)N(C1CCC(=O)NC1=O)C2=O` (racemic) [pomalidomide, (RS)-4-Amino-2-(2,6-dioxo-piperidin-3-yl)-isoindoline-1,3-dione], for which the “solubility in all pH solutions” value in data set [4] (all pH solutions) was “about 0.01 mg/mL”. The “solubility into organic solvents” value in data set [4] (organic solvents) is listed as “limited to low solubility”. In addition, the “growth inhibition of MM cell lines” value in [3] is listed as “growth inhibition in all of these MM cell lines except LP1”. The C-myc protein level result in data set [8] is on record as “very moderate effect”.
With `C[C@@H](N)[C@H]1CC[C@H](C(=O)Nc2ccncc2)CC1` [Y27632], the “viability of RPMI-8226 (number of cells and % of live cells)” value in [9] was “does not impact viability”. In addition, the “HD NK cell viability” value in data set [10] is on record as “neither belumosudil nor Y27632 impact HD NK cell viability”. For the same compound, the “viability of MOLP-8 (number of cells and % of live cells)” value in data set [11] is “does not impact viability”.
